Data from patent US8609358B2, “Methods, peptides and biosensors useful for detecting a broad spectrum of bacteria” (priority 2003, dated 2013).
Primed or numbered codes have the meaning given here. Dabcyl′ = FRET label; Edans = FRET label

Assays:
[1] = test system: bacterial culture (media and cells); assay: Broad spectrum FRET assay, overnight bacterial culture; type: biochemical; conditions: pH 7.2, 150 mM NaCl, 37° C.
Procedure: (§1) A culture of each of the following bacterial species was grown overnight (O/N) in Brain Heart Infusion (BHI) broth at 37° C. with vigorous shaking (˜200 rpm), using methods that are standard in the art: Staphylococcus aureus; Streptococcus pyogenes; Serratia marcescens; Escherichia coli; Pseudomonas aeruginosa (PA14); Pseudomonas aeruginosa (GSU3); and Enterococcus faecalis. After overnight growth, a 1 ml sample of each culture was obtained, and the cells were removed from the culture supernatant by centrifugation at 12,000×g for 5 minutes. The remaining culture supernatants were stored on ice until required (less than one hour). The bacteria were assayed for the presence or absence of enzymes as described below.
Two peptide substrates, CPI1 and CPI2, were designed to encompass all of the cleavage sites of the RSL sequence, as shown in FIGS. 1A and 1B. The peptide substrates were labeled with the fluorescent probe edans (5-((2-aminoethyl)amino)naphthalene-1-sulfonic acid) and the quencher dye molecule dabcyl ((4-(4-(dimethylamino)phenyl)azo)benzoic acid).
The bacteria were grown in an incubator overnight at 37° C. in 5 mL BHI (Brain Heart Infusion) media. Each of the resulting cultures was split into two samples. […] The reaction was followed on a fluorimetric plate reader using an excitation wavelength of 355 nm and an emission wavelength of 485 nm. […]

[2] = test system: proteases of Serratia; assay: Surface sensor sensitivity: cleavage of CPI2 by bacterial proteases; type: biochemical, Serratia marcescens; conditions: for sensor signal: end of sensor study (40 hours)
Procedure: (§2) CPI2 was determined to be a good candidate for a broad-spectrum sensor. Surface sensors were constructed as follows:
(§3) Membrane used: Pall SB6407
(§4) The sensors were air dried and stored overnight at −20° C. Sensors were loaded into sterile 96 well plates for the sensitivity study.
(§5) The bacteria E. faecalis, P. aeruginosa, S. aureus, S. pyogenes, and S. marcescens were grown in an incubator overnight at 37° C. in 5 ml BHI (Brain Heart Infusion) media and diluted to the concentrations given for each experiment. Each strain of bacteria was diluted with PBS (pH 7.4) to obtain an optical density (OD) of approximately 0.52 at 550 nm. This OD was assumed to represent approximately 10^8 cells/ml of bacteria. The 10^8 cells/ml stock of each bacteria was diluted with PBS to obtain a concentration series of: 10^7, 10^6, 10^5 and 10^4 cells/ml. Sensitivity testing consisted of placing 100 μL of each of the concentration series of 10^7, 10^6, 10^5 and 10^4 cells/ml (cells) onto a row of sensors. Controls for each sensitivity testing consisted of sensors exposed to 100 μL PBS.
Data was taken at 4, 24 and 48 hours for each plate. Data consisted of color (fluorescent) images of each plate taken under relatively uniform conditions (lighting, exposure time, etc.) using a Kodak DC290 digital camera. Images were analyzed using NIH ImageJ, a public domain image processing and analysis program developed at the National Institutes of Health (NIH). Analysis consisted of measuring the intensity value within each well (i.e., the sum of the intensity values of all the pixels in the selection divided by the number of pixels). Pixels range in value from 0 to 1. […] All sensor sensitivity data is plotted on an index scale from 0 to 1 versus time and the trends accurately reflect what is seen in the images.

[3] = test system: E. coli cells or supernatant; assay: Cleavage of CPI2 incubated with E. coli; type: biochemical, Escherichia coli
Procedure: as §1
The bacteria were grown in an incubator overnight at 37° C. in 5 mL BHI (Brain Heart Infusion) media. Each of the resulting cultures was split into two samples. One was used as a culture, and the other was spun down by centrifugation and the supernatant was collected. The assays were run in 20 mM tris buffer (pH 7.2) with 150 mM NaCl added […]. The cleavage reaction was carried out with 7 μL of culture or supernatant and 3 μL of peptide substrate (5 mg/mL in water/DMSO) in 100 μL total volume at 37° C. The reaction was followed on a fluorimetric plate reader using an excitation wavelength of 355 nm and an emission wavelength of 485 nm.

[4] = test system: proteases of Staphylococcus; assay: Surface sensor sensitivity: cleavage of CPI2 by bacterial proteases; type: biochemical, Staphylococcus aureus
Procedure: as §2, §3, §4, §5
(§6) Data was taken at 4, 24 and 48 hours for each plate. […] Images were analyzed using NIH ImageJ, a public domain image processing and analysis program developed at the National Institutes of Health (NIH). […]

[5] = test system: proteases of Pseudomonas; assay: as above; type: biochemical, Pseudomonas aeruginosa
Procedure: as §2, §3, §4, §5, §6

[6] = test system: five different clinical strains of E. faecalis; assay: Inter-strain operability; type: biochemical, Enterococcus faecalis; conditions: all five clinical strains
Excerpt: A CIP2 fluorescent resonance entergy transfer (FRET) peptide was exposed to five different clinical strains of E. faecalis (obtained from the University of Colorado). […] FIG. 12 illustrates a graph of the relative fluorescence measured after exposure to the various strains.

[7] = test system: proteases of Enterococcus; assay: Surface sensor sensitivity: cleavage of CPI2 by bacterial proteases; type: biochemical, Enterococcus faecalis
Procedure: as §2, §3, §4, §5, §6

[8] = Cleavage of CPI2 in uninfected wound fluid; type: biochemical; conditions: in the presence of uninfected wound fluid
[9] = test system: proteases of Streptococcus; assay: Surface sensor sensitivity: cleavage of CPI2 by bacterial proteases; type: biochemical, Streptococcus pyogenes
Procedure: as §2, §3, §4, §5, §6

[10] = 10^5 bacteria/ml, end of sensor study (40 hours)

Row | Substance | protease activity (relative fluorescence) [1] | sensor signal ([2]; 10^4 bacteria/ml) | sensor signal ([2]; 10^5 bacteria/ml) | cleavage of peptide substrate ([2]; proteases of Serratia) | sensor signal ([3]; 10^5 bacteria/ml) | cleavage of peptide substrate ([3]; incubated with E. coli cells or supernatant) | sensor signal [4, 10] | cleavage of peptide substrate ([4]; proteases of Staphylococcus) | sensor signal [5, 10] | cleavage of peptide substrate ([5]; proteases of Pseudomonas) | reaction with strains (relative fluorescence) [6] | sensor signal [7, 10] | cleavage of peptide substrate ([7]; proteases of Enterococcus) | cleavage of peptide substrate [8] | sensor signal [9, 10] | cleavage of peptide substrate ([9]; proteases of Streptococcus)
1 | Edans-EAAGAMFLEAIPK-Dabcyl (Edans-EAAGAMFLEAIPK-{Dabcyl′}) [CPI1] | protease activity was observed for a number of the bacteria | – | – | – | – | – | – | – | – | – | – | – | – | – | – | –
2 | Edans-EGAMFLEAIPMSIPK-Dabcyl (Edans-EGAMFLEAIPMSIPK-{Dabcyl′}) [CPI2] | protease activity was observed for a number of the bacteria | not observed to give a signal that can be significantly measured above the background | strong signal | efficiently cleaved | not | not cleaved | strong signal | efficiently cleaved | strong signal | efficiently cleaved | reacted strongly | strong signal | efficiently cleaved | not cleaved | strong signal | efficiently cleaved
